Patent US20230407243A1, “GENETIC PLATFORM TO INVESTIGATE THE FUNCTIONS OF BACTERIAL DRUG EFFLUX PUMPS” (priority 2022, published 2023)

Columns and labels:
Assay in all cases: MIC of strains harboring ASKA plasmids
Format in all cases: cell-based, Escherichia coli
EKO-35 gyrB (pCA24N) = conditions: 0.1 mM IPTG; for MIC: EKO-35 gyrB; for MIC, EKO-35 gyrB (pCA24N), Chlor +: 4 μg/mL chloramphenicol selection; for MIC, EKO-35 gyrB (pCA24N), Chlor −: no plasmid selection
EKO-35 rspA (pCA24N) = conditions: 0.1 mM IPTG; for MIC: EKO-35 rspA; for MIC, EKO-35 rspA (pCA24N), Chlor +: 4 μg/mL chloramphenicol selection; for MIC, EKO-35 rspA (pCA24N), Chlor −: no plasmid selection
EKO-35 tufA (pCA24N) = conditions: 0.1 mM IPTG; for MIC: EKO-35 tufA; for MIC, EKO-35 tufA (pCA24N), Chlor +: 4 μg/mL chloramphenicol selection; for MIC, EKO-35 tufA (pCA24N), Chlor −: no plasmid selection

| Molecule | MIC (EKO-35 gyrB (pCA24N); Chlor + (4 μg/mL)) | MIC (EKO-35 gyrB (pCA24N); Chlor −) | MIC (EKO-35 rspA (pCA24N); Chlor + (4 μg/mL)) | MIC (EKO-35 rspA (pCA24N); Chlor −) | MIC (EKO-35 tufA (pCA24N); Chlor + (4 μg/mL)) | MIC (EKO-35 tufA (pCA24N); Chlor −) | MIC, EKO-35 gyrB (pCA24N), Chlor + (EKO-35 gyrB (pCA24N)) | MIC, EKO-35 gyrB (pCA24N), Chlor − (EKO-35 gyrB (pCA24N)) | MIC, EKO-35 rspA (pCA24N), Chlor + (EKO-35 rspA (pCA24N)) | MIC, EKO-35 rspA (pCA24N), Chlor − (EKO-35 rspA (pCA24N)) | MIC, EKO-35 tufA (pCA24N), Chlor + (EKO-35 tufA (pCA24N)) | MIC, EKO-35 tufA (pCA24N), Chlor − (EKO-35 tufA (pCA24N)) |
| --- | --- | --- | --- | --- | --- | --- | --- | --- | --- | --- | --- | --- |
| benzalkonium chloride | 0.781 µg/mL | 0.781 µg/mL | 0.781 µg/mL | 0.781 µg/mL | 0.781 µg/mL | 0.781 µg/mL |  |  |  |  |  |  |
| Cn1cc(Br)c(-c2cccc(NC(=O)Nc3ccc(OC(F)(F)F)cc3)c2)n1 [compound 14] |  |  |  |  |  |  | >5 μg/mL | >5 μg/mL | >5 μg/mL | >5 μg/mL | >5 μg/mL | >5 μg/mL |
| O=C(Nc1ccccc1C(=O)Nc1nnc(C(F)(F)F)s1)c1ccccc1Cl [compound 19] |  |  |  |  |  |  | >5 μg/mL | >5 μg/mL | >5 μg/mL | >5 μg/mL | >5 μg/mL | >5 μg/mL |
